# From PubChem BioAssay (NCI)
#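 Exposure lasted 48 hours, with cells grown in 96-well plates and compounds tested at five concentrations. The concentration for 50% growth inhibition is given as GI50. TGI is the concentration that stops growth completely.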
# Tested on: HS 578T breast
# Experiment: NCI tumour cell line growth inhibition, 48 h
SMILES,GI50 [µM],TGI [µM]
CC(C)=CCCC(C)c1ccc(C)c2c1OCN(CC1CCNCC1)C2 (stereo unspecified),13.3,29.9
COc1ccc(N2C(=O)CC(Cl)C2=O)cc1 (stereo unspecified),,> 100
O=C(/C=C/c1ccc(F)cc1)c1ccc(Cl)cc1Cl,54.3,> 100

# Tested on: CAKI-1 renal
# Experiment: NCI tumour cell line growth inhibition, 48 h
SMILES,TGI [µM],GI50 [µM]
N=c1oc2ccc([N+](=O)[O-])cc2cc1C(=O)NCc1ccccc1,36.2,
COc1cc(C(=O)/C(C)=C/c2c[nH]c3ccccc23)cc(OC)c1OC,> 100,0.00421
CC(C)=CCCC(C)c1ccc(C)c2c1OCN(CC1CCNCC1)C2 (stereo unspecified),36.8,17.7
O=C(/C=C/c1ccc(F)cc1)c1ccc(Cl)cc1Cl,89.6,33

# Tested on: SN12C renal
# Experiment: NCI tumour cell line growth inhibition, 48 h
SMILES,TGI [µM],GI50 [µM]
N=c1oc2ccc([N+](=O)[O-])cc2cc1C(=O)NCc1ccccc1,36.9,
COc1cc(C(=O)/C(C)=C/c2c[nH]c3ccccc23)cc(OC)c1OC,> 100,
CC(C)=CCCC(C)c1ccc(C)c2c1OCN(CC1CCNCC1)C2 (stereo unspecified),28.9,14.2
COc1ccc(N2C(=O)CC(Cl)C2=O)cc1 (stereo unspecified),32.7,
O=C(/C=C/c1ccc(F)cc1)c1ccc(Cl)cc1Cl,> 100,61.8

# Tested on: RPMI-8226 leukemia
# Experiment: NCI tumour cell line growth inhibition, 48 h
SMILES,TGI [µM],GI50 [µM]
N=c1oc2ccc([N+](=O)[O-])cc2cc1C(=O)NCc1ccccc1,> 100,
COc1cc(C(=O)/C(C)=C/c2c[nH]c3ccccc23)cc(OC)c1OC,4.55,0.00482
CC(C)=CCCC(C)c1ccc(C)c2c1OCN(CC1CCNCC1)C2 (stereo unspecified),32.6,7.25
COc1ccc(N2C(=O)CC(Cl)C2=O)cc1 (stereo unspecified),37.2,
O=C(/C=C/c1ccc(F)cc1)c1ccc(Cl)cc1Cl,39.5,17.5

# Tested on: SK-MEL-5 melanoma
# Experiment: NCI tumour cell line growth inhibition, 48 h
SMILES,TGI [µM],GI50 [µM]
N=c1oc2ccc([N+](=O)[O-])cc2cc1C(=O)NCc1ccccc1,41.6,
COc1cc(C(=O)/C(C)=C/c2c[nH]c3ccccc23)cc(OC)c1OC,0.0205,0.00428
CC(C)=CCCC(C)c1ccc(C)c2c1OCN(CC1CCNCC1)C2 (stereo unspecified),18.3,4.97
COc1ccc(N2C(=O)CC(Cl)C2=O)cc1 (stereo unspecified),> 100,
O=C(/C=C/c1ccc(F)cc1)c1ccc(Cl)cc1Cl,> 100,50.8

# Tested on: MCF7 breast
# Experiment: NCI tumour cell line growth inhibition, 48 h
SMILES,TGI [µM],GI50 [µM]
N=c1oc2ccc([N+](=O)[O-])cc2cc1C(=O)NCc1ccccc1,> 100,
COc1cc(C(=O)/C(C)=C/c2c[nH]c3ccccc23)cc(OC)c1OC,> 100,0.00357
CC(C)=CCCC(C)c1ccc(C)c2c1OCN(CC1CCNCC1)C2 (stereo unspecified),18.7,6.15
COc1ccc(N2C(=O)CC(Cl)C2=O)cc1 (stereo unspecified),> 100,
O=C(/C=C/c1ccc(F)cc1)c1ccc(Cl)cc1Cl,62.5,20.6

# Tested on: MDA-MB-435
# Experiment: NCI tumour cell line growth inhibition, 48 h
SMILES,TGI [µM],GI50 [µM]
N=c1oc2ccc([N+](=O)[O-])cc2cc1C(=O)NCc1ccccc1,49.3,
COc1cc(C(=O)/C(C)=C/c2c[nH]c3ccccc23)cc(OC)c1OC,0.00633,0.00232
CC(C)=CCCC(C)c1ccc(C)c2c1OCN(CC1CCNCC1)C2 (stereo unspecified),20.9,6.48
COc1ccc(N2C(=O)CC(Cl)C2=O)cc1 (stereo unspecified),> 100,
O=C(/C=C/c1ccc(F)cc1)c1ccc(Cl)cc1Cl,> 100,50

# Tested on: BT-549 breast
# Experiment: NCI tumour cell line growth inhibition, 48 h
SMILES,TGI [µM],GI50 [µM]
N=c1oc2ccc([N+](=O)[O-])cc2cc1C(=O)NCc1ccccc1,30,
COc1cc(C(=O)/C(C)=C/c2c[nH]c3ccccc23)cc(OC)c1OC,,0.00583
CC(C)=CCCC(C)c1ccc(C)c2c1OCN(CC1CCNCC1)C2 (stereo unspecified),41.6,16.9
COc1ccc(N2C(=O)CC(Cl)C2=O)cc1 (stereo unspecified),> 100,
O=C(/C=C/c1ccc(F)cc1)c1ccc(Cl)cc1Cl,71.6,27.2

# Tested on: SNB-75 CNS
# Experiment: NCI tumour cell line growth inhibition, 48 h
SMILES,TGI [µM],GI50 [µM]
N=c1oc2ccc([N+](=O)[O-])cc2cc1C(=O)NCc1ccccc1,29.5,
COc1cc(C(=O)/C(C)=C/c2c[nH]c3ccccc23)cc(OC)c1OC,16.1,0.00334
CC(C)=CCCC(C)c1ccc(C)c2c1OCN(CC1CCNCC1)C2 (stereo unspecified),24.3,11.9
COc1ccc(N2C(=O)CC(Cl)C2=O)cc1 (stereo unspecified),> 100,

# Tested on: SK-MEL-28 melanoma
# Experiment: NCI tumour cell line growth inhibition, 48 h
SMILES,TGI [µM],GI50 [µM]
N=c1oc2ccc([N+](=O)[O-])cc2cc1C(=O)NCc1ccccc1,35.8,
COc1cc(C(=O)/C(C)=C/c2c[nH]c3ccccc23)cc(OC)c1OC,,0.0175
CC(C)=CCCC(C)c1ccc(C)c2c1OCN(CC1CCNCC1)C2 (stereo unspecified),29.3,15.7
COc1ccc(N2C(=O)CC(Cl)C2=O)cc1 (stereo unspecified),30.2,

# Tested on: T-47D breast
# Experiment: NCI tumour cell line growth inhibition, 48 h
SMILES,TGI [µM],GI50 [µM]
N=c1oc2ccc([N+](=O)[O-])cc2cc1C(=O)NCc1ccccc1,67.3,
COc1cc(C(=O)/C(C)=C/c2c[nH]c3ccccc23)cc(OC)c1OC,> 100,2.46
CC(C)=CCCC(C)c1ccc(C)c2c1OCN(CC1CCNCC1)C2 (stereo unspecified),33.2,15.2
COc1ccc(N2C(=O)CC(Cl)C2=O)cc1 (stereo unspecified),38.4,

# Tested on: UACC-62 melanoma
# Experiment: NCI tumour cell line growth inhibition, 48 h
SMILES,TGI [µM],GI50 [µM]
N=c1oc2ccc([N+](=O)[O-])cc2cc1C(=O)NCc1ccccc1,42.9,
COc1cc(C(=O)/C(C)=C/c2c[nH]c3ccccc23)cc(OC)c1OC,14.1,
CC(C)=CCCC(C)c1ccc(C)c2c1OCN(CC1CCNCC1)C2 (stereo unspecified),29.9,15.5
COc1ccc(N2C(=O)CC(Cl)C2=O)cc1 (stereo unspecified),46.5,
O=C(/C=C/c1ccc(F)cc1)c1ccc(Cl)cc1Cl,> 100,39.8

# Tested on: RXF 393 renal
# Experiment: NCI tumour cell line growth inhibition, 48 h
SMILES,TGI [µM],GI50 [µM]
N=c1oc2ccc([N+](=O)[O-])cc2cc1C(=O)NCc1ccccc1,28,
COc1cc(C(=O)/C(C)=C/c2c[nH]c3ccccc23)cc(OC)c1OC,> 100,1.81
CC(C)=CCCC(C)c1ccc(C)c2c1OCN(CC1CCNCC1)C2 (stereo unspecified),21.7,9.2
COc1ccc(N2C(=O)CC(Cl)C2=O)cc1 (stereo unspecified),40.7,
O=C(/C=C/c1ccc(F)cc1)c1ccc(Cl)cc1Cl,93.4,30.5

# Tested on: A549 NSCLC
# Experiment: NCI tumour cell line growth inhibition, 48 h
SMILES,TGI [µM],GI50 [µM]
N=c1oc2ccc([N+](=O)[O-])cc2cc1C(=O)NCc1ccccc1,> 100,
COc1cc(C(=O)/C(C)=C/c2c[nH]c3ccccc23)cc(OC)c1OC,> 100,0.0041
CC(C)=CCCC(C)c1ccc(C)c2c1OCN(CC1CCNCC1)C2 (stereo unspecified),27.8,13
COc1ccc(N2C(=O)CC(Cl)C2=O)cc1 (stereo unspecified),> 100,
O=C(/C=C/c1ccc(F)cc1)c1ccc(Cl)cc1Cl,> 100,33.5

# Tested on: NCI/ADR-RES ovarian
# Experiment: NCI tumour cell line growth inhibition, 48 h
SMILES,TGI [µM],GI50 [µM]
N=c1oc2ccc([N+](=O)[O-])cc2cc1C(=O)NCc1ccccc1,33.6,
COc1cc(C(=O)/C(C)=C/c2c[nH]c3ccccc23)cc(OC)c1OC,> 100,0.00322
CC(C)=CCCC(C)c1ccc(C)c2c1OCN(CC1CCNCC1)C2 (stereo unspecified),34.8,16.8
COc1ccc(N2C(=O)CC(Cl)C2=O)cc1 (stereo unspecified),> 100,
O=C(/C=C/c1ccc(F)cc1)c1ccc(Cl)cc1Cl,> 100,38.4
